Data as given in DBAASP.
Values after ≈ are worked out from the molar mass of the structure shown. Each block holds one molecule with its values, some of them ahead of it.

Key:
Test in all cases: ≥ marks a high value that may be exact or a test limit, other limits are often not marked, values filed in µg/mL are converted to µM
Escherichia coli HB101 = test system: Escherichia coli HB101
[1] = test system: Leishmania major MHOM/IL/67/JERICHO-II
[2] = test system: Staphylococcus aureus Cowan 1
[3] = test system: Bacillus subtilis DSM 347
[4] = test system: Escherichia coli DH5alpha
[5] = test system: Franconibacter helveticus DSM 18396
[6] = test system: Kocuria rhizophila DSM 348
Bacillus cereus C737 = test system: Bacillus cereus C737
Escherichia coli UB1005 = test system: Escherichia coli UB1005
[7] = test system: Pseudomonas aeruginosa PAO1
Aeromonas hydrophila = test system: Aeromonas hydrophila
Bacillus subtilis = test system: Bacillus subtilis
Escherichia coli = test system: Escherichia coli
Staphylococcus aureus = test system: Staphylococcus aureus
Vibrio harveyi = test system: Vibrio harveyi
Vibrio parahaemolyticus = test system: Vibrio parahaemolyticus
[8] = test system: Bacillus subtilis CMCC 63501
[9] = test system: Enterococcus faecalis ATCC 29212
[10] = test system: Escherichia coli ATCC 25922
[11] = test system: Salmonella enterica subsp. enterica serovar Pullorum C79-13
[12] = test system: Salmonella enterica subsp. enterica serovar Typhimurium ATCC 14028
[13] = test system: Staphylococcus aureus ATCC 29213
[14] = test system: Staphylococcus epidermidis ATCC 12228

MIC (Escherichia coli HB101): 2.7 µM (≈ 7.97 µg/mL)
MIC [1]: 6.1 µM (≈ 18 µg/mL)
MIC [2]: 2.7 µM (≈ 7.97 µg/mL)
Structure (SMILES): CC[C@H](C)[C@H](NC(=O)[C@@H](NC(=O)[C@H](CC(=O)O)NC(=O)[C@H](C)NC(=O)[C@H](C)NC(=O)[C@H](C)NC(=O)CNC(=O)[C@H](CC(C)C)NC(=O)[C@H](C)NC(=O)[C@H](C)NC(=O)[C@H](CCCCN)NC(=O)CNC(=O)[C@H](C)NC(=O)[C@H](Cc1cnc[nH]1)NC(=O)[C@H](CC(C)C)NC(=O)[C@H](C)NC(=O)[C@H](CCSC)NC(=O)[C@@H](NC(=O)CNC(=O)[C@H](CC(C)C)NC(=O)[C@H](CCCCN)NC(=O)[C@H](CCCCN)NC(=O)[C@H](CC(C)C)NC(=O)[C@H](CCSC)NC(=O)[C@@H](NC(=O)[C@H](CCCCN)NC(=O)[C@H](Cc1c[nH]c2ccccc12)NC(=O)[C@H](CC(C)C)NC(=O)[C@H](C)N)[C@@H](C)O)[C@@H](C)O)[C@@H](C)O)C(N)=O [ALWKTMLKKLGTMALHAGKAALGAAADTI]

MIC (Escherichia coli HB101): 3.6 µM (≈ 7.55 µg/mL)
MIC [1]: 17.9 µM (≈ 37.5 µg/mL)
MIC [2]: ≥ 35.9 µM
Structure (SMILES): CSCC[C@H](NC(=O)[C@@H](NC(=O)CNC(=O)[C@H](CC(C)C)NC(=O)[C@H](CCCCN)NC(=O)[C@H](CCCCN)NC(=O)[C@H](CC(C)C)NC(=O)[C@H](CCSC)NC(=O)[C@@H](NC(=O)[C@H](CCCCN)NC(=O)[C@H](Cc1c[nH]c2ccccc12)NC(=O)[C@H](CC(C)C)NC(=O)[C@H](C)N)[C@@H](C)O)[C@@H](C)O)C(=O)N[C@@H](C)C(=O)N[C@@H](CC(C)C)C(=O)N[C@@H](Cc1cnc[nH]1)C(=O)N[C@@H](C)C(=O)NCC(=O)N[C@@H](CCCCN)C(N)=O [ALWKTMLKKLGTMALHAGK]

MIC [3]: 8 µM (≈ 19.1 µg/mL)
MIC [4]: ≥ 64 µM
MIC [5]: ≥ 64 µM
MIC [6]: ≥ 64 µM
Structure (SMILES): CC[C@H](C)[C@H](NC(=O)CN)C(=O)NCC(=O)N[C@@H](CCCCN)C(=O)N[C@@H](Cc1ccccc1)C(=O)N[C@@H](CC(C)C)C(=O)N[C@@H](Cc1cnc[nH]1)C(=O)N[C@@H](CO)C(=O)N[C@@H](C)C(=O)N[C@@H](CCCCN)C(=O)N[C@@H](CCCCN)C(=O)N[C@@H](C)C(=O)NCC(=O)N[C@@H](CCCCN)C(=O)N[C@@H](C)C(=O)N[C@@H](Cc1ccccc1)C(=O)N[C@H](C(=O)NCC(=O)N[C@@H](CCC(=O)O)C(=O)N[C@H](C(=O)N[C@@H](CCSC)C(=O)N[C@@H](CC(N)=O)C(=O)N[C@@H](CO)C(=O)O)[C@@H](C)CC)C(C)C [GIGKFLHSAKKAGKAFVGEIMNS]

MIC [3]: 1 µM (≈ 2.48 µg/mL)
MIC [4]: 16 µM (≈ 39.7 µg/mL)
MIC [5]: 8 µM (≈ 19.8 µg/mL)
MIC [6]: 8 µM (≈ 19.8 µg/mL)
Structure (SMILES): CC[C@H](C)[C@H](NC(=O)CN)C(=O)NCC(=O)N[C@@H](CCCCN)C(=O)N[C@@H](Cc1ccccc1)C(=O)N[C@@H](CC(C)C)C(=O)N[C@@H](Cc1cnc[nH]1)C(=O)N[C@@H](CO)C(=O)N[C@@H](C)C(=O)N[C@@H](CCCCN)C(=O)N[C@@H](CCCCN)C(=O)N[C@@H](Cc1ccccc1)C(=O)NCC(=O)N[C@@H](CCCCN)C(=O)N[C@@H](C)C(=O)N[C@@H](Cc1ccccc1)C(=O)N[C@H](C(=O)N[C@@H](C)C(=O)N[C@@H](CCC(=O)O)C(=O)N[C@H](C(=O)N[C@@H](CCSC)C(=O)N[C@@H](CC(N)=O)C(=O)N[C@@H](CO)C(=O)O)[C@@H](C)CC)C(C)C [GIGKFLHSAKKFGKAFVAEIMNS]

MIC (Bacillus cereus C737): ≥ 81.3 µM
MIC (Escherichia coli UB1005): ≥ 81.3 µM
MIC [7]: > 81.3 µM
Structure (SMILES): CC[C@H](C)[C@H](NC(=O)[C@H](CC(=O)O)NC(=O)[C@H](Cc1ccccc1)NC(=O)[C@H](CC(C)C)NC(=O)CN)C(=O)N[C@H](C(=O)N[C@@H](CCCCN)C(=O)N[C@@H](CCCCN)C(=O)N[C@H](C(=O)N[C@H](C(=O)NCC(=O)N[C@@H](C)C(=O)N[C@@H](C)C(=O)NCC(=O)N[C@@H](CO)C(=O)N[C@@H](CC(C)C)C(N)=O)C(C)C)C(C)C)C(C)C [GLFDIVKKVVGAAGSL]

MIC (Aeromonas hydrophila): ≥ 96 µM
MIC (Bacillus subtilis): ≥ 33.9 µM
MIC (Escherichia coli): 17 µM (≈ 50.5 µg/mL)
MIC (Staphylococcus aureus): 17 µM (≈ 50.5 µg/mL)
MIC (Vibrio harveyi): 17 µM (≈ 50.5 µg/mL)
Structure (SMILES): CC[C@H](C)[C@H](NC(=O)[C@H](CC(C)C)NC(=O)[C@H](CCC(=O)O)NC(=O)CNC(=O)[C@H](CC(C)C)NC(=O)[C@H](Cc1cnc[nH]1)NC(=O)CNC(=O)[C@H](CCCCN)NC(=O)[C@@H](NC(=O)[C@H](Cc1ccccc1)NC(=O)[C@H](CCCCN)NC(=O)[C@H](CCCCN)NC(=O)[C@H](CS)NC(=O)[C@H](CC(C)C)NC(=O)[C@H](CO)NC(=O)[C@H](CCCCN)NC(=O)[C@H](CC(C)C)NC(=O)[C@H](CC(C)C)NC(=O)CN)C(C)C)C(=O)N[C@@H](CCC(=O)O)C(=O)N[C@@H](CCC(=O)O)C(=O)N[C@@H](CC(C)C)C(=O)N[C@H](C(=O)N[C@H](C(=O)N[C@@H](CO)C(=O)N[C@@H](CC(=O)O)C(=O)N[C@@H](CC(=O)O)C(=O)O)[C@@H](C)O)[C@@H](C)O [GLLKSLCKKFVKGHLGELIEELTTSDD]
MIC (Vibrio parahaemolyticus): ≥ 96 µM

MIC [8]: 8 µM (≈ 21 µg/mL)
MIC [9]: 4 µM (≈ 10.5 µg/mL)
MIC [10]: 2 µM (≈ 5.26 µg/mL)
MIC (Escherichia coli UB1005): 2 µM (≈ 5.26 µg/mL)
MIC [11]: 8 µM (≈ 21 µg/mL)
MIC [12]: 4 µM (≈ 10.5 µg/mL)
MIC [13]: 4 µM (≈ 10.5 µg/mL)
MIC [14]: 4 µM (≈ 10.5 µg/mL)
Structure (SMILES): CC[C@H](C)[C@H](NC(=O)[C@H](C)NC(=O)[C@H](CC(C)C)NC(=O)[C@@H]1CCCN1C(=O)[C@@H](NC(=O)[C@H](CC(C)C)NC(=O)[C@H](CCC(N)=O)NC(=O)[C@H](Cc1c[nH]c2ccccc12)NC(=O)[C@H](Cc1ccccc1)NC(=O)[C@H](CCCN=C(N)N)NC(=O)[C@@H](N)CCCCN)C(C)C)C(=O)N[C@@H](CCCCN)C(=O)N[C@H](C(=O)N[C@@H](Cc1ccc(O)cc1)C(=O)N[C@@H](CCCN=C(N)N)C(=O)N[C@@H](C)C(=O)N[C@@H](Cc1c[nH]c2ccccc12)C(=O)N[C@@H](CCCCN)C(=O)N[C@@H](CCCN=C(N)N)C(=O)N[C@@H](CCCN=C(N)N)C(=O)O)[C@@H](C)CC [KRFWQLVPLAIKIYRAWKRR]

MIC (Aeromonas hydrophila): ≥ 96 µM
MIC (Bacillus subtilis): ≥ 96 µM
MIC (Escherichia coli): 33.9 µM (≈ 82 µg/mL)
MIC (Staphylococcus aureus): 17 µM (≈ 41 µg/mL)
MIC (Vibrio harveyi): ≥ 96 µM
Structure (SMILES): CC[C@H](C)[C@H](NC(=O)[C@H](CCC(=O)O)NC(=O)[C@H](CC(N)=O)NC(=O)[C@H](CS)NC(=O)[C@@H](N)C(C)C)C(=O)NCC(=O)N[C@@H](CC(C)C)C(=O)N[C@@H](CC(C)C)C(=O)N[C@@H](CCCCN)C(=O)N[C@@H](CO)C(=O)N[C@@H](CC(C)C)C(=O)N[C@@H](CS)C(=O)N[C@@H](CCCCN)C(=O)N[C@@H](CCCCN)C(=O)N[C@@H](Cc1ccccc1)C(=O)N[C@H](C(=O)N[C@@H](CCCCN)C(=O)NCC(=O)N[C@@H](Cc1cnc[nH]1)C(=O)N[C@@H](CC(C)C)C(=O)NCC(=O)N[C@@H](CCC(=O)O)C(=O)O)C(C)C [VCNEIGLLKSLCKKFVKGHLGE]
MIC (Vibrio parahaemolyticus): ≥ 96 µM
